Reference: patent US9642808B2, “Extended release compositions comprising mycophenolate sodium and processes thereof” (PANACEA BIOTECH LIMITED, priority 2007, dated 2017)
Where two headings read alike, the source gives them in different places.

Tests used:
[1] = 423 de novo kidney allograft recipients; cited from earlier work
[2] = cited from earlier work
[3] = pH-dependent solubility of the drug; assay type: physicochemical
Text: The present invention provides a stable extended release single unit dosage form composition such as matrix tablets which could provide substantially linear drug release for a prolonged duration of time during the transit through varying pHs of the GIT.
The prior art formulation approaches lead to a pharmaceutical composition which has a suitable fast disintegration time but not necessarily a suitable dissolution rate of the active agent under acidic conditions, i.e. a multiparticulate composition in the form of a tablet with an extragranularly added disintegrant will rapidly disintegrate into granules but the dissolution of the drug substance from the composition and/or the disintegrated composition under acidic conditions may be unsuitable and, low due to the solubility properties of the active agent itself. The availability of an active agent with respect to absorption, i.e. entrance into the circulatory system, is dependant on the presence of the active agent in dissolved form as it is generally accepted that only dissolved substances are capable of passing the mucous membranes in the gastro-intestinal tract. Therefore, it is important that the dissolution of the active agent is suitably fast even under acidic conditions in order to enable absorption from the stomach so that the absorption of the active agent is continuous throughout the GIT, and the bioavailability is not compromised.

[4] = controlled de novo and maintenance renal studies

| SMILES | incidence of GI adverse events [1] [%] | Adverse Events (%): Anemia [2, 4] [%] | Adverse Events (%): CMV infections [2, 4] [%] | Adverse Events (%): Constipation [2, 4] [%] | Adverse Events (%): Diarrhoea [2, 4] [%] | Adverse Events (%): Dyspepsia [2, 4] [%] | Adverse Events (%): Insomnia [2, 4] [%] | Adverse Events (%): Leukopenia [2, 4] [%] | Adverse Events (%): Nausea [2, 4] [%] | Adverse Events (%): Urinary Tract Infection [2, 4] [%] | Adverse Events (%): Vomiting [2, 4] [%] | solubility ([3]; pH above 6.0) | solubility ([3]; pH below 6.0) | solubility in an acidic medium ([3]; pH of from about 1 to about 3) | Adverse Events (%): CMV infections ([2]; in vivo) [%] |
| --- | --- | --- | --- | --- | --- | --- | --- | --- | --- | --- | --- | --- | --- | --- | --- |
| COc1c(C)c2c(c(O)c1C/C=C(\C)CCC(=O)OCCN1CCOCC1)C(=O)OC2 [MMF, mycophenolate mofetil] | 77.1 | 21.6 | 20.2 | 38.0 | 24.8 | 22.5 | 23.5 | 19.2 | 29.1 | 29.1 | 20 | – | – | – | – |
| COc1c(C)c2c(c(O)c1C/C=C(\C)CCC(=O)O)C(=O)OC2 [MPS, mycophenolate sodium] | 79.8 | 21.9 | – | 39.5 | 23.5 | 19 | 23.8 | 20.5 | 27.1 | 33.3 | 23 | high solubility | poor solubility | substantially low solubility | 18.1 |
